Source: the NIST ThermoML archive (doi:10.1016/j.jct.2016.08.027)

Conditions: Liquid, Vibrating tube method

CCCCCCCCCCCC(=O)OCC [ethyl dodecanoate]
mass density [kg/m3]
Conditions	283.15 K	293.15 K	303.15 K	313.15 K	323.15 K	333.15 K	343.15 K	353.15 K	363.15 K
100 kPa	869.69	862.5	854.28	846.91	838.9	831.05	823.11	815.47	807.52
1000 kPa	870.36	863	855.02	847.32	839.64	831.72	824.13	816.33	808.53
3000 kPa	871.92	864.24	856.39	848.68	841.1	833.53	825.84	818.26	810.45
5000 kPa	872.91	865.2	857.69	850.07	842.59	835.15	827.55	819.99	812.32
10000 kPa	876.08	868.58	860.98	853.51	846.29	838.84	831.53	824.24	816.46
15000 kPa	878.96	871.64	864.33	856.86	849.77	842.47	835.33	828.35	821.01
20000 kPa	881.89	874.58	867.23	860.1	853.3	846.07	839.18	832.01	824.82
25000 kPa	884.58	877.55	870.25	863.29	856.35	849.47	842.57	835.81	828.56
30000 kPa	887.29	880.26	873.21	866.24	859.5	852.73	846.08	839.36	832.36
35000 kPa	890.05	882.89	876.08	869.1	862.45	855.75	849.44	842.72	835.98
40000 kPa	892.47	885.52	878.71	871.83	865.48	859.06	852.46	846.01	839.55
50000 kPa	897.22	890.85	883.88	877.43	871.16	864.9	858.61	852.29	845.99
60000 kPa	901.93	895.29	888.85	882.35	876.11	870.44	864.08	858.27	852.14

CCCCCCCCCCCC(=O)OC [methyl dodecanoate]
mass density [kg/m3]
Conditions	283.15 K	293.15 K	303.15 K	313.15 K	323.15 K	333.15 K	343.15 K	353.15 K	363.15 K
100 kPa	876.58	869.3	860.98	853.31	845.42	837.89	829.64	821.96	813.95
1000 kPa	877.29	869.79	861.67	853.78	846.17	838.44	830.6	822.7	814.97
3000 kPa	879.12	871.19	863.19	855.32	847.65	840.13	832.28	824.65	816.88
5000 kPa	880.29	872.09	864.57	856.78	849.19	841.69	834.04	826.36	818.64
10000 kPa	883.41	875.46	867.78	860.3	852.91	845.49	837.93	830.59	822.93
15000 kPa	886.29	878.42	871.1	863.63	856.38	849.14	841.71	834.55	827.44
20000 kPa	889.1	881.47	874.06	866.74	859.88	852.7	845.7	838.32	831.22
25000 kPa	891.75	884.32	876.92	870.04	863.01	856.12	848.98	842.04	834.95
30000 kPa	894.31	887.1	879.85	872.94	866.2	859.27	852.48	845.62	838.64
35000 kPa	896.95	889.69	882.66	875.68	869.19	862.4	855.72	849.06	842.26
40000 kPa	899.33	892.27	885.34	878.33	872.15	865.66	858.94	853.14	845.87
50000 kPa	904.05	897.52	890.6	883.95	877.67	871.36	864.79	858.49	852.24
60000 kPa	909.85	901.95	895.49	888.91	883.06	876.77	870.31	864.35	858.43
